The results in this text go back to ChEMBL document CHEMBL3616438, “Molecular modeling studies and synthesis of novel quinoxaline derivatives with potential anticancer activity as inhibitors of c-Met kinase” (Bioorg Med Chem, 2015).

In brackets after ≈: the same amount, converted by molar mass.

Common to all, as to type: functional, cell-based
One test has as its system NCI-H460. The test can be described thus: Cytotoxicity against human NCI-H460 cells assessed as inhibition of cell viability after 72 hrs by SRB assay.
The test system of another test is SF-268. Put plainly: Cytotoxicity against human SF268 cells assessed as inhibition of cell viability after 72 hrs by SRB assay.
In the next test the test system is MCF7. Put plainly: Cytotoxicity against human MCF7 cells assessed as inhibition of cell viability after 72 hrs by SRB assay.

For the molecule `Cc1nc2cc(Br)ccc2nc1Oc1ccccc1N`, the IC50 in the test on NCI-H460 stood at 0.03 µg/mL (≈ 0.0909 µM); in the test on SF-268, 0.06 µg/mL (≈ 0.182 µM); in the test with MCF7 it was 0.02 µg/mL (≈ 0.0606 µM).

`O=c1[nH]c2ccc(Br)cc2nc1/C=C/c1ccc(O)cc1`: the IC50 in the test on NCI-H460 came out at 0.02281 µg/mL (≈ 0.0665 µM); in the test on SF-268, 0.02283 µg/mL (≈ 0.0665 µM); in the test with MCF7 it was 0.02281 µg/mL (≈ 0.0665 µM).

For the molecule `Cc1nc2cc(Br)ccc2n(CC(=O)NN)c1=O`, the values for the IC50 in the test with NCI-H460, with SF-268 and in the test on MCF7 were 0.02 µg/mL (≈ 0.0643 µM), 0.06 µg/mL (≈ 0.193 µM) and 0.01 µg/mL (≈ 0.0321 µM), respectively.

Consider `Cc1nc2cc(Br)ccc2nc1Oc1ccc(/N=C\c2ccc(Cl)cc2)cc1`, for which the figures for the IC50 with NCI-H460, with SF-268 and with MCF7 were 0.08 µg/mL (≈ 0.177 µM), 0.02 µg/mL (≈ 0.0442 µM) and 0.08 µg/mL (≈ 0.177 µM), respectively.

For the molecule `Cc1nc2cc(Br)ccc2nc1Oc1ccc(N)cc1`, the IC50 with NCI-H460 was 0.52 µg/mL (≈ 1.57 µM); in the test with SF-268, 0.08 µg/mL (≈ 0.242 µM); in the test with MCF7 it was 0.81 µg/mL (≈ 2.45 µM).

Consider `COc1cccc2c1C(=O)c1c(O)c3c(c(O)c1C2=O)C[C@@](O)(C(=O)CO)C[C@@H]3O[C@H]1C[C@H](N)[C@H](O)[C@H](C)O1` [DOXORUBICIN], for which the IC50 in the test on NCI-H460 turned out to be 0.09 µg/mL (≈ 0.166 µM); in the test with SF-268 it was 0.09 µg/mL (≈ 0.166 µM); in the test on MCF7 it was 0.04 µg/mL (≈ 0.0736 µM).

On to `COc1ccc(/C=C/c2nc3cc(Br)ccc3[nH]c2=O)cc1`, for which the IC50 came to 0.06 µg/mL (≈ 0.168 µM) in the test on NCI-H460, 0.2 µg/mL (≈ 0.56 µM) in the test on SF-268 and 0.06 µg/mL (≈ 0.168 µM) with MCF7.

As for `Cc1nc2cc(Br)ccc2nc1NN`, the IC50 with NCI-H460 came out at 0.02062 µg/mL (≈ 0.0815 µM); in the test on SF-268, 0.01682 µg/mL (≈ 0.0665 µM); in the test on MCF7 it was 0.02427 µg/mL (≈ 0.0959 µM).

`Cc1ccc(/C=C/c2nc3cc(Br)ccc3[nH]c2=O)cc1`: the IC50 was determined as 0.00812 µg/mL (≈ 0.0238 µM) in the test with NCI-H460, 0.0168 µg/mL (≈ 0.0492 µM) with SF-268 and 0.02221 µg/mL (≈ 0.0651 µM) with MCF7.

Take `Cc1nc2cc(Br)ccc2nc1Oc1ccc(C=O)cc1`: the figures for the IC50 with NCI-H460, with SF-268 and in the test on MCF7 were 0.02845 µg/mL (≈ 0.0829 µM), 0.0405 µg/mL (≈ 0.118 µM) and 0.03278 µg/mL (≈ 0.0955 µM), respectively.

`Cc1nc2cc(Br)ccc2nc1N1CCCCC1`: the IC50 in the test with NCI-H460 was determined as 0.04032 µg/mL (≈ 0.132 µM); with SF-268, 0.03044 µg/mL (≈ 0.0994 µM); in the test with MCF7 it was 0.03361 µg/mL (≈ 0.11 µM).

For `Cc1cc(C)n(-c2nc3ccc(Br)cc3nc2C)n1`, the half-inhibitory concentration (IC50) in the test with NCI-H460 stood at 0.0346 µg/mL (≈ 0.109 µM); in the test on SF-268 it was 0.04541 µg/mL (≈ 0.143 µM); in the test with MCF7, 0.02355 µg/mL (≈ 0.0742 µM).

Turning to `Cc1nc2cc(Br)ccc2nc1Nc1ccc(S(=O)(=O)N2CCCCC2)cc1`, the IC50 in the test on NCI-H460 was determined as 0.67 µg/mL (≈ 1.45 µM); in the test on SF-268, 0.0018 µg/mL (≈ 0.0039 µM); with MCF7, 0.00162 µg/mL (≈ 0.00351 µM).

In the case of `Cc1nc2cc(Br)ccc2n2nnnc12`, the IC50 in the test on NCI-H460 stood at 0.0208 µg/mL (≈ 0.0788 µM); with SF-268 it was 0.0203 µg/mL (≈ 0.0769 µM); in the test with MCF7, 0.03309 µg/mL (≈ 0.125 µM).

`O=c1[nH]c2ccc(Br)cc2nc1/C=C/c1ccc(Br)cc1`: the IC50 with NCI-H460 was found to be 0.03632 µg/mL (≈ 0.0894 µM); with SF-268, 0.04066 µg/mL (≈ 0.1 µM); in the test with MCF7, 0.03223 µg/mL (≈ 0.0794 µM).

Take `Cc1nc2cc(Br)ccc2nc1Oc1ccc(/C=N\c2ccc(Cl)cc2)cc1`: the IC50 with NCI-H460 was 0.01866 µg/mL (≈ 0.0412 µM); in the test on SF-268, 0.03043 µg/mL (≈ 0.0672 µM); in the test on MCF7 it was 0.01263 µg/mL (≈ 0.0279 µM).

With `Cc1nc2cc(Br)ccc2nc1Sc1ccccc1`, the results for the IC50 with NCI-H460, in the test with SF-268 and in the test on MCF7 were 0.01842 µg/mL (≈ 0.0556 µM), 0.01816 µg/mL (≈ 0.0548 µM) and 0.01222 µg/mL (≈ 0.0369 µM), respectively.

Consider `CCOC(=O)Cn1c(=O)c(C)nc2cc(Br)ccc21`, for which the IC50 worked out at 0.01042 µg/mL (≈ 0.032 µM) with NCI-H460, 0.00863 µg/mL (≈ 0.0265 µM) with SF-268 and 0.0224 µg/mL (≈ 0.0689 µM) in the test with MCF7.
